From US10814018B2, “Isotopically labeled deoxy-glucose and derivatives thereof, compositions comprising them and uses thereof” (HADASIT MEDICAL RESEARCH SERVICE & DEVELOPMENT LTD., priority 2010, dated 2020)
Each block holds one molecule with its values, some of them ahead of it.

What was measured:
[1] = rats, intravenous, cited from earlier work
[2] = T1 of glucose 13C nuclei by inversion recovery pulse sequence (Varian NMR spectrometers, 7 T and 11.8 T); format: physicochemical
Method: The effect of glucose concentration on the T1 of its carbon positions was investigated at 7 T (FIG. 1A) and at 11.8 T (FIG. 1B) using Varian NMR spectrometers (The Netherlands). [U-^13C6, ^2H7]glucose was obtained from Cambridge Isotopes Laboratories (Andover, Mass., USA). The T1 of [U-^13C6, ^2H7]glucose ^13C's was measured using the inversion recovery pulse sequence. […] The mean difference between the T1s of the two concentrations was 6.9 s (P=2*10^−6, paired t-test) at 7 T. The mean difference in T1 at 11.8 T was 4.5 s (P=4*10^−5, paired t-test). The labels C1α and C1β (FIG. 1-3) mark the two signals of the glucose carbon at position 1 in the α and β anomers. The labels Ciα and Ciβ (FIG. 1-3) mark the two signals of the glucose carbon at position i in the α and β anomers.
The effect of the magnetic field strength on the T1 of glucose carbons was investigated at 7 T (FIG. 2, solid gray columns) and at 11.8 T (FIG. 2, diagonal pattern columns). [U-^13C6, ^2H7]glucose T1 at 400 mM was measured using the inversion recovery pulse sequence in the two spectrometers. […] The mean difference in T1 between the two fields was 2 s (P=6*10^−4, paired t-test).
To increase the signal of hyperpolarized deoxy-glucose and hyperpolarized glucose, stable isotope labeling by carbon-13 in all of the carbon positions was used. The effect of direct carbon-13 to carbon-13 bonding on the individual carbon-13 T1s was investigated to study the effect of these added dipolar interactions on T1 relaxation times. To this end, two compounds were investigated (both from Cambridge Isotopes Laboratories): [U-^13C6, ^2H7]glucose (FIG. 3, solid gray columns) and [^2H7]glucose (FIG. 3, diagonal pattern columns), both at 400 mM concentration. The T1 at 11.8 T was measured using the inversion recovery pulse sequence. While both compounds are fully deuterated, in the [U-^13C6, ^2H7]glucose molecule the carbon positions are 99% occupied by ^13C nuclei. In the [^2H7]glucose molecule, only ca. 1.1% of each of the carbon positions are occupied by ^13C nuclei (due to the natural abundance distribution of ^13C). The chance for having two directly bonded ^13C nuclei in this molecule is therefore 0.01% (negligible). Therefore this measurement was indicative of the T1 of singly ^13C labeled glucose. […] Therefore, it was deducted that direct bonding of additional ^13C nuclei led to a decrease in glucose ^13C T1s, due to the additional dipolar interactions.

[3] = Hyperpolarized glucose carbon-13 images in vivo at 3 T after tail vein bolus; set-up: species or system rats
Method: Hyperpolarized glucose images were recorded at 3 T in vivo. As depicted in FIG. 5, hyperpolarized [U-^13C6, ^2H7]glucose provided a high signal on carbon-13 images recorded in vivo. Normal rats were anesthetized, and hyperpolarized [U-^13C6, ^2H7]glucose was injected through the tail vein in a bolus of 12 s total duration. Images were recorded at 8, 12, and 20 s from the onset of the bolus injection (i.e. during and after the bolus). […] Arterial hyperpolarized media flow at this time is not likely, as the signal in the kidneys is not yet visible. […] The signal from the injected hyperpolarized media is extremely high with no background signal. At 12 s (FIG. 5B), at the end of the bolus injection, signal intensity in the main vasculature and the heart is still high, with substantial intensity observed in the kidneys (see indicating arrows). At 20 s from bolus initiation (FIG. 5C), signal from the heart is the most intense signal in the image, about 40% higher than signal in the vasculature and 20% higher than signal in the kidneys. Still, signal in the kidneys is clearly observed, as well as signal in other tissues such as the liver (see indicating arrows and color change). The hyperpolarized glucose signal observed in the heart at 20 s from bolus start is more intense than signal in the vasculature and the kidneys. […] In the anaesthetized rat, the only tissue that is expected to actively take up glucose is the myocardium, because under anesthesia it is the only active muscle. […] It is noted that heart anatomy cannot be discerned from these hyperpolarized images since the imaging time (1 s) averaged several heart beats (approximately 6 beats). However, glucose uptake by the myocardium can be determined at short time frames of the order of 20 s using gradient de-phasing of intravoxel moving spins. Using this methodology, hyperpolarized glucose or deoxyglucose signal from capillaries are diminished, while the signal of intracellular hyperpolarized glucose or deoxyglucose are imaged and indicate the level of glucose uptake in the tissue.

[4] = value taken as a consideration in the simulation; cited from earlier work

SMILES: O=CC[C@@H](O)[C@H](O)[C@H](O)CO [2-deoxy-D-glucose]
heart rate ([1]; 0.25, 0.5, and 1 g/Kg): no change
respiratory rate ([1]; 0.25, 0.5, and 1 g/Kg): no change
arterial blood pressure ([1]; 0.25, 0.5, and 1 g/Kg, not in a dose dependent manner): mean decrease
death ([1]; dose of 0.25, 0.5, and 1 g/Kg): No death

mean difference in T1 between the two fields (longer at 7 T) ([2]; 400 mM, 7 T vs 11.8 T, P=6*10^-4, paired t-test): 2 s
T1 of glucose, individual values per carbon position and anomer ([2]; 7 T, 400 mM): 8 to 13 s
mean difference between the T1s of the two concentrations (longer at 400 mM) ([2]; 7 T, 400 mM vs 4.03 M, P=2*10^-6, paired t-test): 6.9 s
mean difference in T1 between the two concentrations (longer at 400 mM) ([2]; 11.8 T, 400 mM vs 4.03 M, P=4*10^-5, paired t-test): 4.5 s
T1 of glucose 13Cs shorter than in [2H7]glucose (natural abundance 13C) ([2]; 11.8 T, 400 mM, P=1.4x10^-3, paired t-test): 3.3 s
SMILES: [2H][13C]1(O)O[13C@]([2H])([13C]([2H])([2H])O)[13C@@]([2H])(O)[13C@]([2H])(O)[13C@@]1([2H])O (stereo partly shown) [[U-^13C6, ^2H7]glucose]
signal from the heart higher than signal in the kidneys ([3]; 20 s from bolus initiation): ~20%
signal from the heart higher than signal in the vasculature ([3]; 20 s from bolus initiation): about 40%
signal on carbon-13 images recorded in vivo ([3]; normal anesthetized rats, tail vein bolus of 12 s): high signal

SMILES: CC(=O)C(=O)O [pyruvate, [1-^13C]pyruvate]
T1 of pyruvate [4]: 55 s
